Source: patent US20120009320A1, “COMPOSITIONS COMPRISING MONATIN AND CALCIUM” (priority 2009, published 2012)
Counter-ions that a name gives are not always drawn.

Experiments:
panelists [1] = test: Sensory panel sweetness matching against sucrose references (SEV) in milk and water media, Example 1; assay type: in vivo, human; details: for sweetness enhancement of water/calcium solution over monatin in water alone: c. 120 mg calcium/100 ml as Gluconal CAL
Protocol: (§1) As used herein, “sucrose equivalency value”, or SEV, is a measure of sweetness. The SEV is the concentration (% w/v) of a sucrose solution that gives a degree of sweetness that is perceived to be the same degree of sweetness as that of a test sample. For purposes of this disclosure, the SEV of an aqueous or dairy solution containing monatin is determined through comparison of the monatin-containing solution to a series of sucrose containing solutions prepared in the same medium (see Example 1).
Monatin compositions were prepared by adding monatin to each of the solutions below at 20 ppm and 40 ppm. Sucrose reference compositions were also prepared. • Milk (0% fat) • Milk (0% fat) adjusted to pH 4.6 with lactic acid • Milk (2% fat) • Milk (3.6% fat) • Water • Water, adjusted to pH 4.6 with lactic acid • Water containing c. 120 mg calcium/100 ml (Ca^2+ added as Gluconal CAL® soluble salt) • Water containing 4.5% lactose • Water containing c. 120 mg calcium/100 mL plus 4.5% lactose • Water containing 3% milk protein isolate (Davisco BiPro)
(§2) Panelists (8-10) were presented with a range (2-12%; w/v) of sucrose reference solutions prepared in each of the mediums listed above as well as two monatin test solutions at 20 ppm and 40 ppm prepared in the same manner. The panelists were instructed to taste the test sample and then to identify the reference sample that matched the perceived sweetness of the test sample. If the sweetness of the test sample was judged to fall between that of two references, panelists were asked to estimate sweetness to one decimal point. Panelists evaluated each sample in duplicate. All results for each test sample were averaged.

panelists [2] = test: Concentration-response of monatin sweetness (SEV) in milk and diluted yogurt, Example 2; assay type: in vivo, human
Protocol: Monatin, aspartame and sucralose samples were prepared in milk (2% fat) and diluted with plain, fat-free yogurt. Sucrose reference solutions were prepared in solutions of the same medium.
as §2, with “and a single” for “prepared in each of the mediums listed above as well as two monatin”, “sample. They” for “solutions at 20 ppm and 40 ppm prepared in the same manner. The panelists”
Sweetener test samples and sucrose references were prepared as solutions in the following mediums: • (1) Milk (2% fat) at pH 6.8. • (2) A diluted plain (unsweetened and unflavored) yogurt was sheared with water (80 parts yogurt and 20 parts water) to yield an acidic solution based on fermented milk with a final pH of 4.6.

panelists [3] = test: Three-member panel rating (0-9 scale) of difference in sweetness due to calcium at <=200 ppm; assay type: in vivo, human; parameters: key: 0 = none; 1 = trace; 2 = faint; 3 = slight; 4 = mild; 5 = moderate; 6 = definite; 7 = strong; 8 = very strong; 9 = extreme; details: 20 ppm monatin in water, vs control without calcium
Protocol: The samples in Table 5 were prepared by adding 20 ppm of monatin to water in combination with an amount of calcium ranging between 12.5 ppm and 200 ppm. A control sample having 20 ppm of monatin and no calcium was also used. The monatin was in the R,R, form and prepared through a biosynthetic pathway as disclosed in U.S. Patent Publication No. 2005/282260. A three-member panel was used to evaluate sweetness, but instead of quantifying the sample in terms of sweetness equivalency (SEV), the panelists assigned the sample a number between 0 and 9 (see description of scale under Table 5).

[4] = Sweetness match of monatin-sweetened strawberry yogurt to 8% sucrose target; assay type: in vivo
Protocol: A strawberry yogurt sweetened with about 8% sucrose was prepared by conventional methods common to one skilled in the art of yogurt manufacturing to serve as a sweetness target. […] The monatin-sweetened yogurt that most closely matched the sweetness of the target sucrose sample was chosen.

[5] = Sweetness match of monatin-sweetened vanilla ice cream to 13% sucrose target; assay type: in vivo
Protocol: A vanilla ice cream sweetened with about 13% sucrose was prepared by conventional methods common to one skilled in the art of ice cream manufacturing to serve as a sweetness target. Then a set of seven (7) ice cream samples were sweetened with R,R-monatin monopotassium salt using the ingredients listed in Table 13. The amount of monatin in the seven samples was about 35 ppm, about 40 ppm, about 45 ppm, about 50 ppm, about 55 ppm, about 60 ppm and about 70 ppm. Each of the seven samples of monatin-sweetened ice cream were compared to the target ice cream sample containing 13% sucrose. The monatin-sweetened ice cream that most closely matched the sweetness of the target sucrose sample was chosen.

[6] = Sweetness of monatin stereoisomers relative to sucrose by weight (from SEV); assay type: in vivo; details: general statement of the description; listed as R,R stereoisomer of monatin, mono potassium salt
Protocol: as §1
Monatin-containing compositions are described herein as being “X” times as sweet as sucrose. The various stereoisomers of monatin are also described as being “X” times sweeter than sucrose. These values are determined from the SEV of the compositions.

[7] = Diluted Yogurt (pH 4.6), monatin 10 ppm
[8] = Diluted Yogurt (pH 4.6), monatin 20 ppm
[9] = Diluted Yogurt (pH 4.6), monatin 30 ppm
[10] = Diluted Yogurt (pH 4.6), monatin 40 ppm
[11] = Diluted Yogurt (pH 4.6), monatin 50 ppm
[12] = Milk, 2% fat (pH 6.8), monatin 5 ppm
[13] = Milk, 2% fat (pH 6.8), monatin 10 ppm
[14] = Milk, 2% fat (pH 6.8), monatin 20 ppm
[15] = Milk, 2% fat (pH 6.8), monatin 30 ppm
[16] = Milk, 2% fat (pH 6.8), monatin 40 ppm
[17] = Milk, 2% fat (pH 6.8), monatin 50 ppm

NC(CC(O)(Cc1c[nH]c2ccccc12)C(=O)O)C(=O)O (stereo not drawn) [R,R-Monatin, 2R,4R-Monatin mono potassium salt]
decrease in sweetness of water solution having 4.5% lactose compared to water solution only containing monatin (panelists [1]; 20 ppm monatin): 22% | sweetness enhancement of 0% fat milk at pH 4.6 over 0% fat milk at pH 6.4 (panelists [1]; 20 ppm monatin): 13% | SEV (panelists [1]; 20 ppm monatin, Milk (0% fat), pH 6.4): 5.3 %; w/v | SEV (panelists [1]; 20 ppm monatin, Milk (0% fat; yogurt + milk), pH 4.6): 6.0 %; w/v | SEV (panelists [1]; 20 ppm monatin, Milk (2% fat), pH 6.4): 5.6 %; w/v | SEV (panelists [1]; 20 ppm monatin, Milk (3.6% fat), pH 6.4): 5.2 %; w/v | SEV (panelists [1]; 20 ppm monatin, Water + 120 mg/100 mL calcium (Gluconal CAL), pH 7.6): 6.4 %; w/v | SEV (panelists [1]; 20 ppm monatin, Water + 3% whey protein isolate, pH 7.8): 5.2 %; w/v | SEV (panelists [1]; 20 ppm monatin, Water + 4.5% lactose, pH 7.8): 4.0 %; w/v | SEV (panelists [1]; 20 ppm monatin, Water + calcium + lactose, pH 7.8): 5.6 %; w/v | SEV (panelists [1]; 20 ppm monatin, Water + lactic acid, pH 4.6): 6.0 %; w/v | SEV (panelists [1]; 20 ppm monatin, Water, pH 7.8): 5.1 %; w/v | sweetness enhancement of water/calcium solution over monatin in water alone (panelists [1]; 20 ppm monatin): 25% | decrease in sweetness of water solution having 4.5% lactose compared to water solution only containing monatin (panelists [1]; 40 ppm monatin): 18% | sweetness enhancement of 0% fat milk at pH 4.6 over 0% fat milk at pH 6.4 (panelists [1]; 40 ppm monatin): 16% | SEV (panelists [1]; 40 ppm monatin, Milk (0% fat), pH 6.4): 8.5 %; w/v | SEV (panelists [1]; 40 ppm monatin, Milk (0% fat; yogurt + milk), pH 4.6): 9.9 %; w/v | SEV (panelists [1]; 40 ppm monatin, Milk (2% fat), pH 6.4): 8.7 %; w/v | SEV (panelists [1]; 40 ppm monatin, Milk (3.6% fat), pH 6.4): 8.3 %; w/v | SEV (panelists [1]; 40 ppm monatin, Water + 120 mg/100 mL calcium (Gluconal CAL), pH 7.6): 9.0 %; w/v | SEV (panelists [1]; 40 ppm monatin, Water + 3% whey protein isolate, pH 7.8): 7.6 %; w/v | SEV (panelists [1]; 40 ppm monatin, Water + 4.5% lactose, pH 7.8): 6.3 %; w/v | SEV (panelists [1]; 40 ppm monatin, Water + calcium + lactose, pH 7.8): 8.0 %; w/v | SEV (panelists [1]; 40 ppm monatin, Water + lactic acid, pH 4.6): 7.9 %; w/v | SEV (panelists [1]; 40 ppm monatin, Water, pH 7.8): 7.7 %; w/v | sweetness enhancement of water/calcium solution over monatin in water alone (panelists [1]; 40 ppm monatin): 17% | impact of milk fat on relative sweetness values of monatin solutions prepared from milk (panelists [1]; milk 0%, 2%, 3.6% fat): essentially unaffected | Relative Sweetness (panelists [2]; [7]): 4,000 ×sucrose | SEV (panelists [2]; [7]): 4.0 % sucrose; w/v | Relative Sweetness (panelists [2]; [8]): 3,300 ×sucrose | SEV (panelists [2]; [8]): 6.6 % sucrose; w/v | Relative Sweetness (panelists [2]; [9]): 3,100 ×sucrose | SEV (panelists [2]; [9]): 9.3 % sucrose; w/v | Relative Sweetness (panelists [2]; [10]): 2,625 ×sucrose | SEV (panelists [2]; [10]): 10.5 % sucrose; w/v | Relative Sweetness (panelists [2]; [11]): 2,280 ×sucrose | SEV (panelists [2]; [11]): 11.4 % sucrose; w/v | Relative Sweetness (panelists [2]; [12]): 4,000 ×sucrose | SEV (panelists [2]; [12]): 2.0 % sucrose; w/v | Relative Sweetness (panelists [2]; [13]): 3,000 ×sucrose | SEV (panelists [2]; [13]): 3.0 % sucrose; w/v | Relative Sweetness (panelists [2]; [14]): 2,750 ×sucrose | SEV (panelists [2]; [14]): 5.5 % sucrose; w/v | Relative Sweetness (panelists [2]; [15]): 2,270 ×sucrose | SEV (panelists [2]; [15]): 6.8 % sucrose; w/v | Relative Sweetness (panelists [2]; [16]): 2,100 ×sucrose | SEV (panelists [2]; [16]): 8.4 % sucrose; w/v | Relative Sweetness (panelists [2]; [17]): 1,780 ×sucrose | SEV (panelists [2]; [17]): 8.9 % sucrose; w/v | Difference in Sweetness Due to Calcium (panelists [3]; calcium 12.5 ppm): 1 | Difference in Sweetness Due to Calcium (panelists [3]; calcium 25 ppm): 3 | Difference in Sweetness Due to Calcium (panelists [3]; calcium 50 ppm): 4 | Difference in Sweetness Due to Calcium (panelists [3]; calcium 100 ppm): 5 | Difference in Sweetness Due to Calcium (panelists [3]; calcium 200 ppm): 6 | monatin concentration that most closely matched the sweetness of yogurt sweetened to 8% sucrose ([4]; strawberry yogurt): about 25 ppm | times as sweet as sucrose ([4]; strawberry yogurt): about 3200 times | SEV ([4]; strawberry yogurt with 25 ppm R,R monatin): about 8% | monatin concentration that most closely matched the sweetness of ice cream sweetened to 13% sucrose [5]: about 45 ppm | times as sweet as sucrose [5]: about 2800 times | times sweeter than sucrose by weight [6]: 2000-2400 times
